The values that follow come from US20070105939A1, “Mesylate salt of 5-(2-dimethylaminoethoxy)-1H-indole-2-carboxylic acid [3-(4-hydroxycarbamoylphenyl)prop-2-ynyl]amide” (Pharmacyclics, Inc., priority 2005, published 2007).

Series [1] concerns histone deacetylase enzyme H1. To be noted: disclosed in PCT publication WO 2004/019174; cited from earlier work.
For series [2] the following is noted: in vivo.
A short description of series [3]: Solubility (background statement).
Series [4] can be described thus: Oral bioavailability (background statement). To be noted: have to be administered parenterally for therapeutic effect.

Each structure is given as a SMILES string. Read-outs that look alike come from different tables or passages of the source.

With `CN(C)CCOc1ccc2[nH]c(C(=O)NCC#Cc3ccc(C(=O)NO)cc3)cc2c1` [5-(2-dimethylaminoethoxy)-1H-indole-2-carboxylic acid [3-(4-hydroxy-carbamoylphenyl)prop-2-ynyl]amide], the “inhibition of histone deacetylase enzyme H1” value in series [1] is “inhibitors”. For the same molecule, the oral bioavailability entry in series [2] is given as “poor”.

Consider `CN(C)CCOc1ccc2[nH]c(C(=O)NCC#Cc3ccc(C(=O)NO)cc3)cc2c1.Cl` [hydrochloride salt, 5-(2-dimethylaminoethoxy)-1H-indole-2-carboxylic acid [3-(4-hydroxy-carbamoylphenyl)prop-2-ynyl]amide hydrochloride], for which the “inhibition of histone deacetylase enzyme H1” value in series [1] is recorded as “inhibitors”. Moreover, the solubility entry in series [3] is listed as “poor”. Further, the oral bioavailability result in series [4] is “poor”.
